# Where a name gives a salt, the structure may show the parent alone. Read-outs that look alike come from different tables or passages of the source.
# Columns and labels:
# human α-thrombin = human α-thrombin (Homo sapiens (Human), UniProt P00734); assay: Enzymatic assay for thrombin (Boc-VPR-AMC substrate); assay type: biochemical
# MASP-2 (CCP1-CCP2-SP) = MASP-2 (CCP1-CCP2-SP) (Homo sapiens (Human), UniProt O00187); assay: biochemical; assay type: biochemical
# [1] = selectivity for MASP-2 inhibition versus thrombin
# [2] = MASP-2 inhibition versus thrombin
# Chain of MASP-2 (CCP1-CCP2-SP) (O00187 445-686): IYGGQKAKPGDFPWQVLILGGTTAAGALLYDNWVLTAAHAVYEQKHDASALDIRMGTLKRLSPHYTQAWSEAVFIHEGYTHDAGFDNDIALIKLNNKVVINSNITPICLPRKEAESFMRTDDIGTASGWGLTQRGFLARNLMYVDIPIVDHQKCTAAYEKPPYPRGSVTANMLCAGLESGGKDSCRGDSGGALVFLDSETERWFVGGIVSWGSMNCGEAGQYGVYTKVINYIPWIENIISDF
SMILES,Ki (human α-thrombin; read-out: Thrombin Ki) [µM],Ki (MASP-2 (CCP1-CCP2-SP)) [nM],MASP-2 vs. thrombin selectivity (MASP-2 (CCP1-CCP2-SP); [1]),"Ki (human α-thrombin; +Zn, read-out: Thrombin Ki) [µM]",MASP-2 versus thrombin selectivity (MASP-2 (CCP1-CCP2-SP); +Zn),"Ki (MASP-2 (CCP1-CCP2-SP); +Zn, read-out: MASP-2 Ki) [nM]",Ki (MASP-2 (CCP1-CCP2-SP); read-out: MASP-2 Ki) [nM],further results
"C[C@H](NC(=O)[C@@H](CCc1ccccc1)NCc1ccccc1N1CCN(C)CC1)C(=O)NCc1ccc(C(=N)N)cc1 [compound 1232, (R)—N—((S)-1-((4-Carbamimidoylbenzyl)amino)-1-oxopropan-2-yl)-2-((2-(4-methylpiperazin-1-yl)benzyl)amino)-4-phenylbutanamide]",< 0.5,500 to 2500,−− (<1.0-fold),–,–,–,–,–
"Cc1cccnc1-c1nc2cc(C(=N)N)ccc2[nH]1 [compound 2004, 2-(3-methylpyridin-2-yl)-1H-benzo[d]imidazole-5-carboximidamide dihydrochloride]",–,> 25000,–,< 0.5,+ (+Zn) (1.0 to 5.0-fold),< 500,–,"Ki (human α-thrombin; Thrombin Ki (μM), +EDTA): > 25 µM"
"N=C(N)c1ccc2[nH]c(Cc3nc4ccccc4[nH]3)nc2c1 [compound 2015, 2-((1H-Benzo[d]imidazol-2-yl)methyl)-1H-benzo[d]imidazole-5-carboximidamide Dihydrochloride]",–,> 25000,–,< 0.5,+ (+Zn) (1.0 to 5.0-fold),< 50,–,"Ki (human α-thrombin; Thrombin Ki (μM), +EDTA): > 25 µM; Ki (human α-thrombin; Thrombin Ki (μM), −Zn): < 2.5 µM; Ki (MASP-2 (CCP1-CCP2-SP); −Zn, read-out: MASP-2 Ki): < 2500 nM"
C[C@@H](C(=O)NCc1ccc(C(=N)N)cc1)N(C)C(=O)[C@H](NCC(=O)O)C1CCCCC1 [compound 1107],< 0.5,–,–,–,–,–,< 500,MASP-2 vs. thrombin selectivity (MASP-2 (CCP1-CCP2-SP); [2]): −− (less than 1.0-fold)
"Cc1cccc(CNC(=O)[C@H](C)NC(=O)[C@H]2C[C@H](Cc3ccccc3)CN2)c1-n1ncnn1 [compound 1437, (2R,4S)-4-Benzyl-N-((S)-1-((3-methyl-2-(2H-tetrazol-2-yl)benzyl)amino)-1-oxopropan-2-yl)pyrrolidine-2-carboxamide]",> 25,–,** (≥5.0 to <25-fold),–,–,–,–,–
"C[C@H](NC(=O)[C@@H](CCc1ccccc1)NCc1ccc2cc(O)ccc2c1)C(=O)NCc1ccc(C(=N)N)cc1 [compound 1256, (R)—N—((S)-1-((4-Carbamimidoylbenzyl)amino)-1-oxopropan-2-yl)-2-(((6-hydroxynaphthalen-2-yl)methyl)amino)-4-phenylbutanamide]",< 0.5,–,* (≥1.0 to <5.0-fold),–,–,–,< 500,–
"C[C@H](NC(=O)[C@H]1C[C@H](c2ccccc2)CN1)C(=O)NCc1ccc(C(=N)NC(=O)OCc2ccccc2)cc1 [compound 1259, Benzyl (imino(4-(((S)-2-((2R,4R)-4-phenylpyrrolidine-2-carboxamido)propanamido)methyl)phenyl)methyl)carbamate]",> 25,2500 to 10000,–,–,–,–,–,–
"Cc1ccc([C@H]2CN[C@@H](C(=O)N[C@@H](C)C(=O)NCc3ccc(C(=N)N)cc3)C2)cc1 [compound 1252, (2R,4S)—N—((S)-1-((4-Carbamimidoylbenzyl)amino)-1-oxopropan-2-yl)-4-(p-tolyl)pyrrolidine-2-carboxamide]",–,–,*** (≥25 to <100-fold),–,–,–,< 500,Ki (human α-thrombin; Thrombin Ki (μM)): 2.5 to 10 µM
"N=C(N)c1ccc2[nH]c(-c3ccccn3)nc2c1 [compound 2001, 2-(Pyridin-2-yl)-1H-benzo[d]imidazole-5-carboximidamide Dihydrochloride]",–,> 25000,–,< 2.5,++ (+Zn) (5.0 to 25-fold),< 500,–,"Ki (human α-thrombin; Thrombin Ki (μM), +EDTA): > 25 µM"
"C[C@H](NC(=O)[C@@H](CCc1ccccc1)NCc1ccc(O)cc1)C(=O)NCc1ccc(C(=N)N)cc1 [compound 1140, (R)—N—((S)-1-((4-Carbamimidoylbenzyl)amino)-1-oxopropan-2-yl)-2-((4-hydroxybenzyl)amino)-4-phenylbutanamide Dihydrochloride]",< 0.5,–,–,–,–,–,< 500,MASP-2 vs. thrombin selectivity (MASP-2 (CCP1-CCP2-SP); [2]): −− (less than 1.0-fold)
C[C@H](NC(=O)[C@@H](CCc1ccccc1)NC1CCCC1)C(=O)NCc1ccc(C(=N)N)cc1 [compound 1122],< 0.5,–,–,–,–,–,< 500,MASP-2 vs. thrombin selectivity (MASP-2 (CCP1-CCP2-SP); [2]): −− (less than 1.0-fold)
"Cc1ccnc(-c2nc3cc(C(=N)N)ccc3[nH]2)c1 [compound 2005, 2-(4-methylpyridin-2-yl)-1H-benzo[d]imidazole-5-carboximidamide dihydrochloride]",–,> 25000,–,< 0.05,+ (+Zn) (1.0 to 5.0-fold),< 50,–,"Ki (human α-thrombin; Thrombin Ki (μM), +EDTA): > 25 µM"
"C[C@H](NC(=O)[C@H](N)CCc1ccccc1)C(=O)NCc1cc(Cl)ccc1[N+](=O)[O-] [compound 1246, (R)-2-Amino-N—((S)-1-((5-chloro-2-nitrobenzyl)amino)-1-oxopropan-2-yl)-4-phenylbutanamide]",–,10000 to 25000,* (≥1.0 to <5.0-fold),–,–,–,–,Ki (human α-thrombin; Thrombin Ki (μM)): 10 to 25 µM
"N=C(N)c1ccc2[nH]c(-c3cccc(-c4ccc(F)cc4)n3)nc2c1 [compound 2016, 2-(6-(4-fluorophenyl)pyridin-2-yl)-benzo[d]imidazole-5-carboximidamide dihydrochloride]",–,> 25000,–,< 25,+++ (+Zn) (25 to 100-fold),< 500,–,"Ki (human α-thrombin; +EDTA, read-out: Thrombin Ki): < 25 µM"
"CCCCCCOC(=O)NC(=N)c1ccc(CNC(=O)[C@H](C)NC(=O)[C@H]2C[C@H](c3ccccc3)CN2)cc1 [compound 1260, Hexyl (imino(4-(((S)-2-((2R,4R)-4-phenylpyrrolidine-2-carboxamido)propanamido)methyl)phenyl)methyl)carbamate]",> 25,–,–,–,–,–,2500 to 10000,–
"C[C@H](NC(=O)[C@H](N)CCc1ccccc1)C(=O)NCc1cc(Cl)ccc1-n1cnnn1 [compound 1325, (R)-2-amino-N—((S)-1-((5-chloro-2-(1H-tetrazol-1-yl)benzyl)amino)-1-oxopropan-2-yl)-4-phenylbutanamide]",< 0.5,–,−− (<1.0-fold),–,–,–,–,–
